From US9145354B2, “Pharmaceutical compounds” (priority 2011, dated 2015)
Where two headings read alike, the source gives them in different places.

What was measured:
[1] = target: full length NS3/4a (Hepatitis C virus genotype 1b (isolate BK) (HCV), UniProt P26663); experiment: NS3 Protease Assay (Example A), FRET-based; assay type: biochemical
Procedure, shortened: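 Full-length NS3/4a, made in-house, with an NS4A/B-derived peptide substrate carrying QXL520 quencher and 5-FAMsp fluorophore. Buffer 50 mM Tris pH8, 20 mM DTT, 1% CHAPS, 10% glycerol, 5% DMSO. Fluorescence followed 30 min at room temperature; IC50 from initial rates of replicate curves.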

[2] = test system: HCV subgenomic replicon in Huh-7 cells; experiment: Replicon Assay (Example B), luciferase readout EC50; assay type: cell-based; conditions: luciferase readout, upper value of the cell pair, read-out: Assay B EC50
Procedure: The activities of compounds of the invention against HCV in a cellular environment were analysed using a replicon assay as described below.
(§1) Thus, Huh-7 cells persistently infected with an HCV-RNA construct (Bartenschlager, R. Hepatitis C replicons: potential role for drug development. Nature Rev. Drug Discov. 1, 911-916 (2002)) comprising: 5′ and 3′ non-translated regions (NTR); the non-structural genes NS3 to NS5b; as well as the G418 drug resistance gene, neomycin, (for selection of cells carrying HCV replicon RNA) fused to the firefly Luciferase reporter gene (pFKI3889Iuc-ubi-neo/NS3-3′/ET) were used to determine the cell based antiviral activity of compounds using luciferase activity as an indirect readout of HCV RNA load. In this assay […] huh-7 cells persistently infected with the HCV subgenomic replicon construct above were plated/well in a 96 well tissue culture plate. The cells were allowed to attach overnight in DMEM medium supplemented with 10% FBS 1% NEAA, and 250 μg/ml gentamicin. The following day the medium was replaced with 200 μl/well of fresh medium as described above lacking gentamicin. Semilog dilutions of compounds in medium were then added to triplicate wells (non-edge) of the cultured cells to give a 0.1% DMSO final concentration. Plates were then incubated at 37° C. in an atmosphere of 5% CO2 and air for 72 h. […] The plate was then read at 535 nm (excitation) and 590 nm (emission) on a SpectraMax Gemini reader (Molecular Devices) to determine the number of viable cells by measuring the conversion of rezasurin (Alamar blue) to resorufin in response to mitochondrial activity. In order to determine the antiviral effect of these compounds EC50 values were determined by measuring the luciferase activity of the cells. Alamar blue solution was removed from the wells and replaced with 100 μl/well of medium along with 100 μl/well of Bright-Glo reagent and incubated at room temperature for 5 minutes before transferring 100 μl/well to a white bottom 96 well plate to read in a luminometer as described in the Bright-Glo Luciferase Assay System protocol (promega).

[3] = Replicon Assay (Example B), Alamar Blue cytotoxicity CC50; assay type: cell-based; conditions: human, lower value of the cell pair
Source text: as §1

[4] = HCV NS3 protease assay, full length NS3/4a, read-out: Assay A IC50 (μM) average
[5] = read-out: IC50 against the protease activity of the full length NS3/4a
[6] = Hepatitis C virus, Huh-7, replicon assay

full length NS3/4a, sequence (P26663 1027-1657): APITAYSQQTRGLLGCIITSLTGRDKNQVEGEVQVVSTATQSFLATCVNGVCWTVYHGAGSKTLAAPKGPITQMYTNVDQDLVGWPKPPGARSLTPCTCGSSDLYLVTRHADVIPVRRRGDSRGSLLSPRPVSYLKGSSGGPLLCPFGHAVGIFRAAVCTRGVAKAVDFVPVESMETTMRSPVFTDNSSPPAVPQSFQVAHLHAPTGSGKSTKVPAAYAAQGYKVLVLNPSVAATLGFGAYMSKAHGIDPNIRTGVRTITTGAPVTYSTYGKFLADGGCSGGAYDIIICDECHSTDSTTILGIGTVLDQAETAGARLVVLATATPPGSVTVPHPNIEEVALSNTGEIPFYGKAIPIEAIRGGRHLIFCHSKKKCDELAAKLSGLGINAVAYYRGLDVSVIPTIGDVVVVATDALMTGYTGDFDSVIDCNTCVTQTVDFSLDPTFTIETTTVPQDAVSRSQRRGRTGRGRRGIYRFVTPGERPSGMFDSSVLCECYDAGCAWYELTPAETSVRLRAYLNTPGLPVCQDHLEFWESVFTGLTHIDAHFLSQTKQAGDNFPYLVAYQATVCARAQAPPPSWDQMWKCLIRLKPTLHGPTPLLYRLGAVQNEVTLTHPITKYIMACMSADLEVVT

Row | SMILES | IC50 [1, 4] | IC50 [1, 5] | EC50 [2, 6] | CC50 at 72 h [3] | EC50 ([2]; replicon assay) | inhibition at 0.01 µM ([1]; @ 0.01 uM)
1 | CC[C@@H](N[C@@H](C)CC(N)=O)c1ccc(Cl)c(C(=O)c2cccc(O)c2)c1F [Example 227, (3S)-3-{[(1R)-1-{4-chloro-2-fluoro-3-[(3-hydroxyphenyl)carbonyl]phenyl}propyl]amino} butanamide] | 0.15 µM | < 1 µM | 0.011 µM | > 3 µM | – | –
2 | C[C@@H](CC(N)=O)N[C@@H](c1ccc(Cl)c(C(=O)c2ccc(N)nc2)c1F)C1CC1 [Example 154, (3S)-3-{[(R)-{3-[(6-aminopyridin-3-yl)carbonyl]-4-chloro-2-fluorophenyl}(cyclo-propyl)methyl]amino}-butanamide] | 0.2 µM | – | 0.037 µM | > 10 µM | – | –
3 | C[C@@H](CC(N)=O)N[C@@H](c1ccc(Cl)c(C(=O)c2ccncc2)c1F)C1CC1 [Example 134, (3S)-3-{[(R)-{4-chloro-2-fluoro-3-[(pyridin-4-yl)carbonyl]phenyl}-(cyclopropyl)methyl]-amino}butanamide] | 0.085 µM | – | 0.052 µM | > 3 µM | – | –
4 | CC[C@@H](N[C@@H](C)CC(N)=O)c1ccc(Cl)c(C(=O)c2ccc3c(c2)OCCN3)c1F [Example 249, (3S)-3-{[(1R)-1-{4-chloro-3-[(3,4-dihydro-2H-1,4-benzoxazin-7-yl)carbonyl]-2-fluorophenyl}propyl]amino} butanamide] | 0.27 µM | – | 0.033 µM | > 1 µM | – | –
5 | CC[C@@H](N[C@@H](C)CC(N)=O)c1ccc(F)c(C(=O)c2ccccc2)c1F [Example 157, (3S)-3-{[(1R)-1-(3-benzoyl-2,4-difluorophenyl)propyl]-amino}butanamide] | 0.045 µM | – | 0.61 µM | > 10 µM | – | –
6 | CC[C@@H](N[C@@H](C)CC(N)=O)c1ccc(Cl)c(C(=O)c2ccccn2)c1F [Example 104, (3S)-3-{[(1R)-1-{4-chloro-2-fluoro-3-[(pyridin-2-yl)carbonyl]phenyl}-propyl]amino}butanamide] | 0.24 µM | < 1 µM | 0.39 µM | > 3 µM | – | –
7 | CC[C@@H](N[C@@H](C)CC(=O)NCCO)c1ccc(Cl)c(C(=O)c2ccc(N)nc2)c1F [Example 242, (3S)-3-{[(1R)-1-{3-[(6-aminopyridin-3-yl)carbonyl]-4-chloro-2-fluorophenyl}propyl]amino}-N-(2-hydroxyethyl)butanamide] | 0.49 µM | – | 0.098 µM | > 1 µM | – | –
8 | CC[C@@H](N[C@@H](C)CC(N)=O)c1ccc(Cl)c(C(=O)c2cncc(N)c2)c1F [Example 145, (3S)-3-{[(1R)-1-{3-[(5-aminopyridin-3-yl)carbonyl]-4-chloro-2-fluorophenyl}propyl]-amino}butanamide] | 0.84 µM | – | 1 µM | > 10 µM | – | –
9 | CC[C@@H](N[C@@H](C)CC(N)=O)c1ccc(Cl)c(C(=O)c2ccc(C#N)cc2)c1F [Example 91, (3S)-3-{[(1R)-1-{4-chloro-3-[(4-cyanophenyl)carbonyl]-2-fluorophenyl}propyl]amino}-butanamide] | 0.066 µM | – | 0.0012 µM | > 10 µM | – | –
10 | CC[C@@H](N[C@@H](C)CC(N)=O)c1ccc(OC)c(C(=O)c2ccc(N)c(C)c2)c1F [Example 273, (3S)-3-{[(1R)-1-{3-[(4-amino-3-methylphenyl)carbonyl]-2-fluoro-4-methoxyphenyl}propyl]amino}butanamide] | 0.14 µM | – | 0.027 µM | > 3 µM | – | –
11 | CCC(NC1CCCC1C(N)=O)c1ccc(Cl)c(C(=O)c2ccc(N)nc2)c1F (racemic) [Example 125, 2-{[1-{3-[(6-aminopyridin-3-yl)carbonyl]-4-chloro-2-fluorophenyl}propyl]amino} cyclopentane-1-carboxamide] | – | – | – | – | 0.079 µM | –
12 | CCOC(=O)c1cnn(-c2ccc(C(=O)c3c(Cl)ccc([C@H](N)CC)c3F)cn2)c1 [Example 41, ethyl 1-[5-({3-[(1R)-1-aminopropyl]-6-chloro-2-fluorophenyl}carbonyl)pyridin-2-yl]-1H-pyrazole-4-carboxylate] | 1.6 µM | 1 to 5 µM | 0.009 µM | – | – | –
13 | CC[C@@H](N)c1ccc(Cl)c(C(=O)c2ccc(N)c(Cl)c2)c1F [Example 74, (4-Amino-3-chloro-phenyl)-[3-((R)-1-amino-propyl)-6-chloro-2-fluoro-phenyl]-methanone] | – | – | 0.032 µM | – | – | –
14 | C[C@@H](CC(=O)NCCN)NCc1ccc(Cl)c(C(=O)c2ccccc2)c1F [Example 282, (3S)—N-(2-aminoethyl)-3-{[(3-benzoyl-4-chloro-2-fluorophenyl)methyl]-amino}butanamide] | – | – | 3.2 µM | – | – | 65%
15 | CCC(NC1CCCC1C(N)=O)c1ccc(Cl)c(C(=O)c2ccc(N)nc2)c1F (racemic) [Example 161, 2-{[1-{3-[(6-aminopyridin-3-yl)carbonyl]-4-chloro-2-fluorophenyl}propyl]amino} cyclopentane-1-carboxamide] | – | – | – | – | > 10 µM | –
16 | CCC(NC1CCCC1C(N)=O)c1ccc(Cl)c(C(=O)c2ccc(N)nc2)c1F (single isomer, unassigned) [Example 125, 2-{[1-{3-[(6-aminopyridin-3-yl)carbonyl]-4-chloro-2-fluorophenyl}propyl]amino} cyclopentane-1-carboxamide] | 0.29 µM | < 1 µM | – | > 3 µM | – | –
17 | CC[C@@H](N)c1ccc(Cl)c(C(=O)c2ccc(N)c(C#N)c2)c1F [Example 72, 2-Amino-5-[3-((R)-1-amino-propyl)-6-chloro-2-fluoro-benzoyl]-benzonitrile] | – | – | 0.032 µM | – | – | –
18 | [2H]C([2H])([2H])C([2H])([2H])[C@@H](N[C@@H](C)CC(N)=O)c1ccc(Cl)c(C(=O)c2ccc(N)c(C)c2)c1F [Example 268, (3S)-3-{[(1R)-1-{3-[(4-amino-3-methylphenyl)carbonyl]-4-chloro-2-fluorophenyl}(2,2,3,3,3-deutero)propyl]amino}-butanamide] | 0.19 µM | < 1 µM | 0.016 µM | – | – | –
19 | CCC(NC1CCCC1C(N)=O)c1ccc(Cl)c(C(=O)c2ccc(N)nc2)c1F (racemic) [Example 127, 2-{[1-{3-[(6-aminopyridin-3-yl)carbonyl]-4-chloro-2-fluorophenyl}propyl]amino} cyclopentane-1-carboxamide] | – | – | – | – | > 10 µM | –
20 | CC[C@@H](N)c1ccc(Cl)c(C(=O)c2ccc(F)cc2)c1F [Example 8, (1R)-1-{4-chloro-2-fluoro-3-[(4-fluorophenyl)carbonyl]-phenyl}propan-1-amine] | 0.19 µM | < 1 µM | – | – | – | –
21 | [2H]C([2H])([2H])C([2H])([2H])[C@@H](N[C@H](C)CC(N)=O)c1ccc(Cl)c(C(=O)c2ccc(N)c(Cl)c2)c1F [Example 220, (3R)-3-{[(1R)-1-{3-[(4-amino-3-chlorophenyl)carbonyl]-4-chloro-2-fluorophenyl}(2,2,3,3,3-deutero)propyl]amino} butanamide] | 0.26 µM | – | – | – | – | –
22 | CC[C@@H](N)c1ccc(F)c(C(=O)c2ccccc2)c1F [Example 43, (1R)-1-(3-benzoyl-2,4-difluorophenyl)propan-1-amine] | 0.74 µM | < 1 µM | – | – | – | –
23 | C[C@@H](CC(N)=O)NCc1ccc(Cl)c(C(=O)c2ccccc2)c1F [Example 281, (3S)-3-{[(3-benzoyl-4-chloro-2-fluorophenyl)methyl]amino}butanamide] | 0.45 µM | – | – | – | – | –
